Test results published in patent US6444617B1, “Fused-heterocycle dicarboxylic acid diamide derivatives or salts thereof, herbicide and usage thereof” (Nihon Nohyaku Co., Ltd., priority 1998, dated 2002).

Tests used:
Type in all cases: in vivo
[1] = system: barnyard grass (Echinochloa crus-galli Beauv.); assay: Test Example 1: herbicidal effect on paddy field weeds before emergence; details: Dosage 5 kg/ha
Method in brief: (§1)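 Seeds of both weeds, still ungerminated, in soil pots held under paddy conditions received a set dose of test solution as soil treatment. After twenty-one days, control relative to untreated pots was calculated and rated on a scoring scale.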

[2] = system: bulrush (Scirpus juncoides Roxb.); assay: as above; details: Dosage 5 kg/ha
Method in brief: as §1

[3] = system: barnyard grass (Echinochloa crus-galli Beauv.); assay: Test Example 2: herbicidal effect on paddy field weeds after emergence; details: Dosage 5 kg/ha; one-leaved stage; 21 days after treatment
Method in brief: (§2)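 Weeds in flooded paddy-soil pots were grown to the one-leaved stage, then the soil was treated with the compound solution at a set dosage.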

[4] = system: bulrush (Scirpus juncoides Roxb.); assay: as above; details: Dosage 5 kg/ha; one-leaved stage; 21 days after treatment
Method in brief: as §2

[5] = system: monochoria (Monochoria vaginalis Presl); assay: as above; details: Dosage 5 kg/ha; one-leaved stage; 21 days after treatment
Method in brief: as §2

[6] = system: barnyard grass (Echinochloa crus-galli Beauv.), Ec; assay: Test Example 3: herbicidal effect on upland weeds before emergence; details: dosage 5 kg/ha
Method in brief: (§3)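 Test compound, formulated as a liquid at a fixed concentration, is sprayed before weed emergence. Two weeks later, kill rate is derived and herbicidal activity is rated.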

[7] = system: bird's eye speedwell (Veronica persica Poir.), Vp; assay: as above; details: dosage 5 kg/ha
Method in brief: as §3

[8] = system: cleavers (Galium aparine L.), Ga; assay: as above; details: dosage 5 kg/ha
Method in brief: as §3

[9] = system: cocklebur (Xanthium strumarium L.), Xs; assay: as above; details: dosage 5 kg/ha
Method in brief: as §3

[10] = system: forxtail grass (Alopecurus aequalis var. amurensis Ohwi), Am; assay: as above; details: foxtail grass, dosage 5 kg/ha
Method in brief: as §3

[11] = system: velvetleaf (Abutilon theophtasti L.), At; assay: as above; details: dosage 5 kg/ha
Method in brief: as §3

soybean plant (So) = assay: Test Example 3: phytotoxicity to upland crop plants, treatment before emergence; details: dosage 5 kg/ha
Method in brief: (§4)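 Crops treated before emergence with sprayed liquid preparation of compound (prescribed concentration). Day 14: phytotoxicity graded per criterion.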

wheat (Wh) = assay: as above; details: dosage 5 kg/ha
Method in brief: as §4

[12] = system: barnyard grass (Echinochloa crus-galli Beauv.), Ec; assay: Test Example 4: herbicidal effect on upland weeds after emergence; details: dosage 5 kg/ha; sprayed after emergence; judged 14 days after treatment
Method in brief: (§5)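 Upland weeds and crop plants (soybean, wheat) are grown from seed in soil until they reach given leaf stages, then treated by spraying with the compound-containing agent; effects are judged two weeks later.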

[13] = system: bird's eye speedwell (Veronica persica Poir.), Vp; assay: as above; details: dosage 5 kg/ha; sprayed after emergence; judged 14 days after treatment
Method in brief: as §5

[14] = system: cleavers (Galium aparine L.), Ga; assay: as above; details: dosage 5 kg/ha; sprayed after emergence; judged 14 days after treatment
Method in brief: as §5

[15] = system: cocklebur (Xanthium strumarium L.), Xs; assay: as above; details: dosage 5 kg/ha; sprayed after emergence; judged 14 days after treatment
Method in brief: as §5

[16] = system: forxtail grass (Alopecurus aequalis var. amurensis Ohwi), Am; assay: as above; details: dosage 5 kg/ha; sprayed after emergence; judged 14 days after treatment
Method in brief: as §5

[17] = system: velvetleaf (Abutilon theophtasti L.), At; assay: as above; details: dosage 5 kg/ha; sprayed after emergence; judged 14 days after treatment
Method in brief: as §5

soybean plant = assay: Test Example 4: phytotoxicity to upland crop plants, treatment after emergence; details: dosage 5 kg/ha, sprayed after emergence, judged 14 days after treatment
Method in brief: as §5

wheat = assay: as above; details: dosage 5 kg/ha, sprayed after emergence, judged 14 days after treatment
Method in brief: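 Seeds sown in soil and covered. Plants raised to specified leaf stages. Agent with test compound at a prescribed concentration sprayed. Herbicidal effect and crop damage scored after 14 days as weed-killing rate.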

SMILES | Pre-emergence treatment Barnyard grass (herbicidal effect) [1] | Pre-emergence treatment Bulrush (herbicidal effect) [2] | Post-emergence treatment Barnyard grass (herbicidal effect) [3] | Post-emergence treatment Bulrush (herbicidal effect) [4] | Post-emergence treatment Monochoria (herbicidal effect) [5] | Herbicidal effect Ec [6] | Herbicidal effect Vp [7] | Herbicidal effect Ga [8] | Herbicidal effect Xs [9] | Herbicidal effect Am [10] | Herbicidal effect At [11] | Phytotoxicity So (soybean plant (So)) | Phytotoxicity Wh (wheat (Wh)) | Herbicidal effect Ec [12] | Herbicidal effect Vp [13] | Herbicidal effect Ga [14] | Herbicidal effect Xs [15] | Herbicidal effect Am [16] | Herbicidal effect At [17] | Phytotoxicity So (soybean plant) | other results
CCCNC(=O)c1nc2ccc(OC)cc2cc1C(=O)Nc1c(CC)ccc(Cl)c1CC [compound 290] | 5 (Weed-killing rate is 100%.) | 5 (Weed-killing rate is 100%.) | 5 (Weed-killing rate is 100%.) | 5 (Weed-killing rate is 100%.) | 5 (Weed-killing rate is 100%.) | 5 (Weed-killing rate is 100%.) | 5 (Weed-killing rate is 100%.) | 5 (Weed-killing rate is 100%.) | 4 (Weed-killing rate is 90-99%.) | 5 (Weed-killing rate is 100%.) | 5 (Weed-killing rate is 100%.) | 1 (Crop-killing rate is 1-39%.) | 2 (Crop-killing rate is 40-69%.) | 5 (Weed-killing rate is 100%.) | 5 (Weed-killing rate is 100%.) | 5 (Weed-killing rate is 100%.) | 4 (Weed-killing rate is 90-99%.) | 5 (Weed-killing rate is 100%.) | 5 (Weed-killing rate is 100%.) | 2 (Crop-killing rate is 40-69%.) | Phytotoxicity Wh (wheat): 3 (Crop-killing rate is 70-89%.)
CCc1ccc(Cl)c(CC)c1NC(=O)c1cc2cc(OC)ccc2nc1C(=O)NOC(C)C [compound 291] | 5 (Weed-killing rate is 100%.) | 4 (Weed-killing rate is 90-99%.) | 5 (Weed-killing rate is 100%.) | 4 (Weed-killing rate is 90-99%.) | 5 (Weed-killing rate is 100%.) | 5 (Weed-killing rate is 100%.) | 5 (Weed-killing rate is 100%.) | 5 (Weed-killing rate is 100%.) | 4 (Weed-killing rate is 90-99%.) | 4 (Weed-killing rate is 90-99%.) | 5 (Weed-killing rate is 100%.) | 0 (Crop-killing rate is 0-20% (No Phytotoxicity).) | 1 (Crop-killing rate is 1-39%.) | 5 (Weed-killing rate is 100%.) | 5 (Weed-killing rate is 100%.) | 4 (Weed-killing rate is 90-99%.) | 4 (Weed-killing rate is 90-99%.) | 4 (Weed-killing rate is 90-99%.) | 5 (Weed-killing rate is 100%.) | 2 (Crop-killing rate is 40-69%.) | Phytotoxicity Wh (wheat): 2 (Crop-killing rate is 40-69%.)
CCCNC(=O)c1nc2cc(OC)c(OC)cc2cc1C(=O)Nc1c(CC)ccc(Cl)c1CC [compound 305] | 5 (Weed-killing rate is 100%.) | 4 (Weed-killing rate is 90-99%.) | 4 (Weed-killing rate is 90-99%.) | 3 (Weed-killing rate is 70-89%.) | 5 (Weed-killing rate is 100%.) | 5 (Weed-killing rate is 100%.) | 4 (Weed-killing rate is 90-99%.) | 3 (Weed-killing rate is 70-89%.) | 3 (Weed-killing rate is 70-89%.) | 4 (Weed-killing rate is 90-99%.) | 4 (Weed-killing rate is 90-99%.) | 0 (Crop-killing rate is 0-20% (No Phytotoxicity).) | 2 (Crop-killing rate is 40-69%.) | 4 (Weed-killing rate is 90-99%.) | 4 (Weed-killing rate is 90-99%.) | 2 (Weed-killing rate is 40-69%.) | 2 (Weed-killing rate is 40-69%.) | 3 (Weed-killing rate is 70-89%.) | 4 (Weed-killing rate is 90-99%.) | 1 (Crop-killing rate is 1-39%.) | Phytotoxicity Wh (wheat): 2 (Crop-killing rate is 40-69%.)
CCc1ccc(Cl)c(CC)c1NC(=O)c1cc2cc(OC)c(OC)cc2nc1C(=O)NCC(C)C [compound 310] | 4 (Weed-killing rate is 90-99%.) | 3 (Weed-killing rate is 70-89%.) | 3 (Weed-killing rate is 70-89%.) | 2 (Weed-killing rate is 40-69%.) | 5 (Weed-killing rate is 100%.) | 4 (Weed-killing rate is 90-99%.) | 4 (Weed-killing rate is 90-99%.) | 3 (Weed-killing rate is 70-89%.) | 3 (Weed-killing rate is 70-89%.) | 4 (Weed-killing rate is 90-99%.) | 4 (Weed-killing rate is 90-99%.) | 0 (Crop-killing rate is 0-20% (No Phytotoxicity).) | 2 (Crop-killing rate is 40-69%.) | 4 (Weed-killing rate is 90-99%.) | 3 (Weed-killing rate is 70-89%.) | 2 (Weed-killing rate is 40-69%.) | 3 (Weed-killing rate is 70-89%.) | 3 (Weed-killing rate is 70-89%.) | 4 (Weed-killing rate is 90-99%.) | 0 (Crop-killing rate is 0-20% (No Phytotoxicity).) | Phytotoxicity Wh (wheat): 2 (Crop-killing rate is 40-69%.)
